Measurements reported in PubChem BioAssay AID179 (DTP/NCI, 2004).
The source made the active and inactive calls.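 How the source made its calls: active means compounds giving half or more protection of infected cells from virus-caused growth loss, again on retest; inactive means the rest.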 Where a SMILES comes first, the peptide text is derived from it.

Tested on: CEM cells HIV-1 protection, formazan growth assay
Test: NCI AIDS Antiviral Assay
Details: for IC50: measured here: growth of uninfected CEM cells
Procedure, shortened: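 Five concentrations of each compound were applied to infected and uninfected human CEM cells. Protection from HIV-1 was judged from growth measured with a soluble formazan assay.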

| Compound | EC50 | IC50 | outcome |
| --- | --- | --- | --- |
| CCC(=O)CCCC=C(c1cc(Cl)c(OC)c(C=O)c1)c1cc(Cl)c(OC)c(C=O)c1 | > 200 µM | 1.12 µM | – |
| COc1ccc(C(=O)CC2=Nc3nnc(CCCCCCCc4nnc5n4C(=O)C(CC(=O)c4ccc(OC)cc4)=N5)n3C2=O)cc1 | > 4.27 µM | > 4.27 µM | – |
| Nc1ccc2nc(-c3ccccn3)c(-c3ccccn3)nc2c1 | 123 µM | > 200 µM | – |
| CCCOc1csc([C@H]2CCC3[C@@H]4CC=C5C[C@@H](OC(C)=O)CC[C@]5(C)C4CC[C@@]32C)n1 (stereo not given in full) | > 55 µM | > 55 µM | – |
| N#CCC(C#N)N1CCOCC1 (stereo not given) | > 200 µM | > 200 µM | – |
| CC1CCC2CC(=O)OC([C@@H]3C(=O)O[C@@H](C4=CCCC4)C4C(C)CCC43)C12 (stereo not given in full) | > 10 µM | > 10 µM | – |
| CC(=O)[O-].Cc1ccnc(NS(=O)(=O)c2ccc(N=Cc3ccccc3[O-])cc2)n1.Cc1ccnc(NS(=O)(=O)c2ccc(N=Cc3ccccc3[O-])cc2)n1.[Co+2].[H+] | > 200 µM | 10.5 µM | – |
| CC(C)=CCC[C@@H](C)/C=C/C=C(\C)C(=O)CC[C@@H]1CC[N@+]2(C)CCCC[C@H]12 | > 200 µM | 46.8 µM | – |
| FC(F)(Sc1ncc[nH]1)c1nc2ccccc2o1 | 43.7 µM | > 200 µM | – |
| COC(=O)C(Cc1ccccc1)NP(=O)(O)OCC1OC(n2ccc(N)nc2=O)C(O)C1O (stereo not given) | > 200 µM | 4.27 µM | – |
| OC(c1ccccn1)c1c(Cl)cccc1Cl (stereo not given) | > 200 µM | > 200 µM | – |
| SCCSCCCSCCS | > 22.9 µM | > 22.9 µM | – |
| Cc1nn(C(=O)c2ccccc2O)c2c1C(c1ccc(O)cc1O)SC(N)=N2 (stereo not given) | > 2 µM | 0.331 µM | – |
| CC(C)(C)C1CCC2c3c([nH]c4ccccc34)C3C(=O)N(c4cc(Br)cc(Br)c4)C(=O)C3C2C1 (stereo not given) | > 200 µM | 12.6 µM | – |
| CC(=O)NC(CCC(=O)c1ccc(C)cc1)(C(=O)O)C(=O)O | > 200 µM | > 200 µM | – |
| Cc1ccc(S(=O)(=O)c2ccc([N+](=O)[O-])o2)cc1 | 0.02 µM | 0.0631 µM | – |
| COC(=O)C(CC(C)C)NC(=O)NC12CC3CC(CC(F)(C3)C1)C2 (stereo not given) | > 75.9 µM | > 75.9 µM | – |
| CC(C)CC(N)C(=O)NC(CC(=O)O)C(=O)NC(CCCCN)C(=O)NC(C)C(=O)NC(CO)C(=O)NC(Cc1ccc(O)cc1)C(=O)NC(CO)C(=O)NC(C(=O)NC(CC(N)=O)C(=O)NC(Cc1cnc[nH]1)C(=O)NC(CC(C)C)C(=O)O)C(C)O (stereo not given) (H-LDKASYSTNHL-OH; configuration not given here) | > 50.1 µM | > 50.1 µM | inactive |
| CC(C)C(=O)Nc1nc2c(ncn2C2OC(CO)C(O)C2O)c(=O)[nH]1 (stereo not given) | > 708 µM | 513 µM | – |
| CS(=O)(=O)OCCCSCCSCCCOS(C)(=O)=O | > 676 µM | > 676 µM | – |
| CC1C(C#N)(C#N)C(C#N)=C(N)C1(C)[N+](=O)[O-] (stereo not given) | > 200 µM | 27.5 µM | – |
| CC1CCCc2c1n[nH]c2CC1CC(=O)NC(=O)C1 (stereo not given) | > 200 µM | > 200 µM | – |

| Compound | EC50 | IC50 | outcome |
| --- | --- | --- | --- |
| C[C@H]1OC(=O)[C@@H]2N=NN(Cc3ccccc3)[C@H]12 | – | – | inactive |
| CCCCCCCCCCCCCCCCOC[C@@H](COC(c1ccccc1)(c1ccccc1)c1ccccc1)O[P+](=S)OC (stereo not given in full) | > 200 µM | 22.4 µM | – |
| CN1CCC(OC(c2ccccc2)c2ccc(Cl)cc2)C1 (stereo not given) | – | – | inactive |
| COc1ccc2nc3cc([N+](=O)[O-])ccc3c(Nc3ccc(S(=O)(=O)NC(C)=O)cc3)c2c1 | > 200 µM | 75.9 µM | – |
| COc1cc(C2c3cc4c(cc3OC3(OC)COC(=O)C23)OCO4)cc(OC)c1OC (stereo not given) | > 2 µM | 0.24 µM | – |
| COc1nc(NC2OCC(O)C(O)C2O)cc(=O)n1C (stereo not given) | – | – | inactive |
| C/C(CCn1[nH]c(=O)ccc1=O)=N\N=C(N)N | > 4.37 µM | > 4.37 µM | – |
| COc1ccc(C2C(Cl)C(=O)N2n2cnc3ccccc3c2=O)cc1 (stereo not given) | > 3.8 µM | > 3.8 µM | – |
| Cc1cc(=O)oc2cc(OCc3nc4ccccc4c(=O)o3)ccc12 | – | – | inactive |
| C=Cc1ccc(C)[n+](C[Si](C)(C)O[Si](C)(C)C[n+]2cc(C=C)ccc2C)c1 | > 380 µM | 245 µM | – |
| Cc1ccc(S(=O)(=O)C2=c3ncccc3=C3C(=O)c4ccccc4C(=O)C32)cc1 (stereo not given) | – | – | inactive |
| Cc1ccc2c(c1)[n+]([O-])c(N)n[n+]2[O-] | > 200 µM | 19.1 µM | – |
| C1CCC2(CC1)CCCN2 | > 200 µM | > 200 µM | – |
| O=C(Nc1ccn(CCOC(=O)c2ccccc2)c(=O)n1)c1ccccc1 | > 186 µM | > 186 µM | – |
| Cc1cccc(C2=NC(=C3CCCCC3)C(=O)O2)c1 | > 200 µM | 38 µM | – |
| O=[N+]([O-])c1ccc(O)c(CN(Cc2ccccc2)Cc2c(O)ccc3ccccc23)c1 | > 200 µM | > 200 µM | – |
| O=C1CSC2=NC3=C(CSC/C3=C\c3ccccc3)C(c3ccccc3)N12 (stereo not given) | > 200 µM | 43.7 µM | – |
| Cc1cn(CCCCCOC(=O)NC(CCCN=C(N)N)C(=O)O)c(=O)[nH]c1=O (stereo not given) | > 200 µM | 18.2 µM | – |
| Cc1[nH]c(=O)[nH]c(=O)c1CCSSCCc1c(C)[nH]c(=O)[nH]c1=O | > 200 µM | > 200 µM | – |
| Cc1cccc(NC(=O)c2cc3cc(N=Nc4ccc(Br)cc4)ccc3oc2=O)c1 | – | – | inactive |
| NC(=O)CCC(N=c1c2ccccc2n(O)c2ccccc12)C(=O)O (stereo not given) | – | – | inactive |
